Measurements reported in ChEMBL document CHEMBL1201862, “PubChem BioAssay data set” (2004).
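How tested: cells in 96-well plates exposed to compound for 48 hours at five concentrations. Abbreviation: GI50, concentration required for 50% inhibition of growth.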 Activity calls are given as the source filed them. Cut-off read from the data, not from the text of the source: active = GI50 up to about 1.1 µM and inactive = higher.

Experiments:
Assay in all cases: growth of human tumour cells (NCI), 48 h
786-0 = test system: 786-0
A498 = test system: A498
CAKI-1 = test system: CAKI-1
EKVX = test system: EKVX
HCC 2998 = test system: HCC 2998
HCT-116 = test system: HCT-116
HOP-62 = test system: HOP-62
HT-29 = test system: HT-29
M14 = test system: M14
NCI-H522 = test system: NCI-H522
OVCAR-8 = test system: OVCAR-8
RXF 393 = test system: RXF 393
SF-295 = test system: SF-295
SK-MEL-28 = test system: SK-MEL-28
SK-MEL-2 = test system: SK-MEL-2
UACC-62 = test system: UACC-62
COLO 205 = test system: COLO 205
RPMI-8226 = test system: RPMI-8226
CCRF-CEM = test system: CCRF-CEM
SF-268 = test system: SF-268

Measured: GI50

NC(=O)/N=C(\N)NC(=O)c1ccccc1
inactive: 786-0 > 100 µM | A498 > 100 µM | CAKI-1 > 100 µM | EKVX > 100 µM | HCC 2998 > 100 µM | HCT-116 > 100 µM | HOP-62 > 100 µM | HT-29 > 100 µM | M14 > 100 µM | NCI-H522 > 100 µM | OVCAR-8 > 100 µM | RXF 393 > 100 µM | SF-295 > 100 µM | SK-MEL-28 > 100 µM | SK-MEL-2 > 100 µM | UACC-62 > 100 µM

COc1ccc(/C=N/NC(=O)O)cc1
inactive: 786-0 > 100 µM | A498 > 100 µM | CAKI-1 > 100 µM | COLO 205 > 100 µM | EKVX > 100 µM | HCC 2998 88.5 µM | HCT-116 > 100 µM | HOP-62 > 100 µM | HT-29 > 100 µM | M14 > 100 µM | NCI-H522 > 100 µM | RPMI-8226 > 100 µM | RXF 393 > 100 µM | SF-295 > 100 µM | SK-MEL-28 > 100 µM | SK-MEL-2 > 100 µM | UACC-62 > 100 µM

CS(=O)(=O)OCC1CCCCCCCCCCC12SCCCS2 (stereo unspecified)
inactive: 786-0 > 100 µM | A498 > 100 µM | CAKI-1 > 100 µM | CCRF-CEM > 100 µM | COLO 205 > 100 µM | EKVX > 100 µM | HCC 2998 > 100 µM | HCT-116 > 100 µM | HOP-62 > 100 µM | HT-29 > 100 µM | M14 > 100 µM | NCI-H522 > 100 µM | OVCAR-8 > 100 µM | RXF 393 > 100 µM | SF-268 > 100 µM | SF-295 > 100 µM | SK-MEL-28 > 100 µM | SK-MEL-2 > 100 µM | UACC-62 > 100 µM

COc1ccc(Nc2nc3ccc(C(F)(F)F)cc3nc2-c2ccccc2)cc1OC
inactive: 786-0 23.3 µM | A498 21.3 µM | CAKI-1 60.4 µM | CCRF-CEM 25.1 µM | COLO 205 27.9 µM | EKVX 20.7 µM | HCC 2998 14.6 µM | HCT-116 27.4 µM | HOP-62 > 100 µM | HT-29 6.65 µM | M14 55.5 µM | NCI-H522 24.7 µM | OVCAR-8 58.6 µM | RXF 393 23 µM | SF-268 92.7 µM | SF-295 17.4 µM | SK-MEL-28 > 100 µM | SK-MEL-2 57.5 µM | UACC-62 66.8 µM
